In PubChem BioAssay (NCI):
In brackets after ≈: the same amount, converted by molar mass.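 Tested at 5 concentrations; 48 h exposure; 96-well plates; endpoints linearly interpolated, else capped at highest concentration. Here, GI50 denotes the concentration required for 50% inhibition of growth.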 Peptide text beside a SMILES is read from it. * marks the point of attachment. Boc = CC(C)(C)OC(=O)*

Legend:
[1] = tested on: UACC-62 melanoma; experiment: DTP human tumour cell line panel, 48 h
[2] = tested on: HS 578T breast; experiment: DTP human tumour cell line panel, 48 h

Q: With `CC(C)C(NC(=O)OC(C)(C)C)C(=O)N1CCCC1C(=O)O` (stereo not drawn) (Boc-Val-Pro-OH; configuration not given here) as the molecule, how does the GI50 [1] read?
A: 94.1 µg/mL (≈ 299 µM)

Q: And the GI50 [2]?
A: 36.1 µg/mL (≈ 115 µM)
